Measurements as given in article PMC10477861, “Efficient Mining of Anticancer Peptides from Gut Metagenome” (Advanced Science, 2023).
Where no end group is shown, it is not given here.

Legend:
[1] = system: HCT116; assay: MTT primary screening of anticancer activity, HCT116; type: cell-based, Human; settings: 25 µM pACP, 24 h, maintenance medium 1% FBS, ratio of viability to vehicle (PBS), at least three technical repetitions
Outline: (§1)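 Each candidate peptide is tested […] at 25 µM for 24 h on subconfluent (60%) cells kept in low-serum (1% FBS) medium. Viability is quantified with an MTT kit.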

[2] = system: MCF7; assay: MTT primary screening of anticancer activity, MCF7; type: cell-based; settings: 25 µM pACP, 24 h, maintenance medium 1% FBS, ratio of viability to vehicle (PBS), at least three technical repetitions
Outline: as §1

[3] = system: CT26; assay: MTT concentration gradient and CC50 against CT26; type: cell-based, Murine; settings: CT26 cells, calculated with aatbio IC50 calculator from the concentration gradient
Description: To evaluate the translational relevance of our methodology, we selected these two pACPs for in vivo studies. […] Subcutaneous tumors were established using CT26 cells in athymic nude mice, and the animals were randomized to receive two intratumoral injections of 0.80 mg kg^−1 pACP2283, 0.51 mg kg^−1 pACP1780, or PBS control on day 0 and day 2. The dosage of pACPs was calculated as five times the CC50 of each compound in CT26 cells. Tumor size was monitored daily for six days (Figure 3c).
To evaluate the activity of the 40 potentially effective pACPs, a panel of 16 cancer cell lines was treated, including human CRC cell lines (HT29, Caco‐2, HCT116). Details of the cell lines used, respective media, and culture conditions were presented in Table S1 (Supporting Information). Once the cells reached 60% confluence, it was incubated with each candidate peptide at a concentration of 25 µM pACPs for 24 h. Concurrently, the complete medium was replaced with a maintenance medium containing only 1% FBS. Subsequently, the viability of each cell line using the MTT Cell Proliferation and Cytotoxicity Assay Kit according to the manufacturer's instructions was assessed. […] For the CRC cell line CT26, it was calculated the CC50 value using two peptides (pACP1780 and pACP2283) with relevant data presented in Table S6 (Supporting Information). […]

[4] = system: T47D; assay: MTT primary screening of anticancer activity, T47D; type: cell-based; settings: 25 µM pACP, 24 h, maintenance medium 1% FBS, ratio of viability to vehicle (PBS), at least three technical repetitions
Outline: as §1

[5] = system: tumor-free mice; assay: Acute toxicity in tumor-free mice; type: in vivo; settings: for growth rate of body weight: after injection into the abdomen at 50 mg kg-1, gradually recovered over the next five days; for symptoms of illness or body weight loss, acute toxicity: injected into the abdomen at 2, 10 and 50 mg kg-1 over three days, up to 50 mg kg-1
Description: (§2) Furthermore, we investigated the safety of pACP2283 and pACP1780 both in vivo and in vitro. […] Additionally, we conducted an acute toxicity experiment in tumor‐free mice by administering pACPs with increasing concentrations into the abdomen. […] This temporary decrease in body weight growth rate may be attributed to the high concentrations of pACPs, which temporarily disturbed the mice's homeostasis.
(§3) To assess the toxicity of pACP1780 and pACP2283 at the cellular level, HEK293 cells were grown to 60% confluence in complete medium (10% FBS) for 24 h, and then treated with increasing concentrations (1.5, 3, 6, 12.5, 25, 50, and 100 µM) of each pACPs in maintenance medium (1% FBS) for 24 h. The viability of HEK293 cells was determined using the MTT Cell Proliferation and Cytotoxicity Assay Kit following the manufacturer's instructions. For acute toxicity in tumor‐free mice, the pACPs were injected into the abdomen at increasing concentrations of 2, 10, and 50 mg kg^−1 of mouse weight over three days, and the body weights were recorded throughout the process.

[6] = system: MDA-MB-453; assay: MTT primary screening of anticancer activity, MDA-MB-453; type: cell-based; settings: 25 µM pACP, 24 h, maintenance medium 1% FBS, ratio of viability to vehicle (PBS), at least three technical repetitions
Outline: as §1

[7] = system: Caco2; assay: MTT primary screening of anticancer activity, Caco2; type: cell-based, Human; settings: 25 µM pACP, 24 h, maintenance medium 1% FBS, ratio of viability to vehicle (PBS), at least three technical repetitions
Outline: as §1

[8] = system: BT474; assay: MTT primary screening of anticancer activity, BT474; type: cell-based; settings: 25 µM pACP, 24 h, maintenance medium 1% FBS, ratio of viability to vehicle (PBS), at least three technical repetitions
Outline: as §1

[9] = system: EFM192A; assay: MTT primary screening of anticancer activity, EFM192A; type: cell-based; settings: 25 µM pACP, 24 h, maintenance medium 1% FBS, ratio of viability to vehicle (PBS), at least three technical repetitions
Outline: as §1

[10] = system: CT26 cells; assay: Transmission electron microscopy of treated CT26 cells; type: cell-based, Murine; settings: 10× CC50, two hours, triplicate
Description: To explore the anticancer effects of pACP2283 and pACP1780 at the cellular level, we co‐cultured confluent CT26 cells with these pACPs.
Experiments were performed in triplicate with similar results, and a representative figure is shown. c) CD results for the two selected ACPs and the corresponding proportions of secondary structures calculated from CD data using CDNN. Purple represents the water phase, blue represents the represents the peptide mixed with a 20‐fold POPC lipid mixture, and grey represents the peptide mixed with a 20‐fold POPC+POPS lipid mixture.
First, CT26 cancer cells were treated with peptides pACP1780 and pACP2283 for two hours. The digested CT26 cancer cells were then resuspended in double‐strength fixative, which consisted of 2% (w/v) paraformaldehyde and 2.5% (v/v) glutaraldehyde in 10 mM HEPES buffer (pH 7.0). Subsequently, the cells were incubated for 2 h at room temperature on a roller and stored at 4°C. Afterward, the fixed cells were pre‐embedded with agar, subjected to four washes with 5 mM HEPES buffer (pH 7.0) (5 min per wash), and post‐fixed with 1% osmium tetroxide (OsO4) for 30 min. Following post‐fixation, the specimens were rinsed twice with water and dehydrated using an acetone series (5 min each; 30%, 50%, 70%, 85%, 90%, 3×5 min 100%). […]

[11] = system: B16; assay: MTT primary screening of anticancer activity, B16; type: cell-based, Mouse; settings: 25 µM pACP, 24 h, maintenance medium 1% FBS, ratio of viability to vehicle (PBS), at least three technical repetitions
Outline: as §1

[12] = system: LCC; assay: MTT primary screening of anticancer activity, LCC; type: cell-based; settings: 25 µM pACP, 24 h, maintenance medium 1% FBS, ratio of viability to vehicle (PBS), at least three technical repetitions
Outline: as §1

[13] = system: HEK293 cells; assay: Toxicity to HEK293 cells (MTT); type: cell-based; settings: 1.5-100 µM pACP, 24 h, maintenance medium 1% FBS
Description: as §2, §3

Sequence: RRFAWIGKLQSRKVRNNIRQYRTKIVRQMRRQIFRQMKQKAE [pACP1780]
- Survival rate of cancer cells in primary screening [1]: 0.29
- Survival rate of cancer cells in primary screening [2]: 0.0113
- CC50 [3]: 6.23 µM
- Survival rate of cancer cells in primary screening [4]: 0.0167
- growth rate of body weight [5]: slight decrease
- symptoms of illness or body weight loss, acute toxicity [5]: no significant symptoms of illness or body weight loss
- Survival rate of cancer cells in primary screening [6]: 0.085
- Survival rate of cancer cells in primary screening [7]: 0.74
- Survival rate of cancer cells in primary screening [8]: 0.03
- Survival rate of cancer cells in primary screening [9]: 0.01
- cell membranes by transmission electron microscopy [10]: disintegrated cell membranes
- Survival rate of cancer cells in primary screening [11]: 0.41
- Survival rate of cancer cells in primary screening [12]: 0.47
- toxicity to HEK293 cells [13]: no toxicity to HEK293 cells

Sequence: WWRRAERSVRRFFGTPIGPFPEIFGRRKAHKKKIIAKFDSVNG [pACP2283]
- Survival rate of cancer cells in primary screening [1]: 0.0645
- Survival rate of cancer cells in primary screening [2]: 0.0549
- CC50 [3]: 10.56 µM
- Survival rate of cancer cells in primary screening [4]: 0.0119
- growth rate of body weight [5]: slight decrease
- symptoms of illness or body weight loss, acute toxicity [5]: no significant symptoms of illness or body weight loss
- Survival rate of cancer cells in primary screening [6]: 0.03
- Survival rate of cancer cells in primary screening [7]: 1.00
- Survival rate of cancer cells in primary screening [8]: 0.02
- Survival rate of cancer cells in primary screening [9]: 0.15
- cell membranes by transmission electron microscopy [10]: disintegrated cell membranes
- Survival rate of cancer cells in primary screening [11]: 0.28
- Survival rate of cancer cells in primary screening [12]: 0.49
- toxicity to HEK293 cells [13]: no toxicity to HEK293 cells
